Experimental data from patent US7629354B2, “Use of phanquinone for the treatment of Alzheimer's disease” (Prana Biotechnology Limited, priority 1997, dated 2009).
Each block holds one compound with its values, some of them ahead of it.

Key:
[1] = Solubility in water / aqueous solutions; type: physicochemical
[2] = 1H NMR study of the interaction of vitamin B12 with clioquinol glucuronide; type: binding; settings: 2.6 mM vitamin B12 and 10 mM clioquinol glucuronide, buffered water pH=6.5, 20° C.
Description: Three different solutions were prepared and their 1H NMR spectra were recorded in a DRX 400 MHz spectrophotometer at 20° C. Solution a) contained free vitamin B12 (hydroxycobalamin) in a concentration of 2.6 mM.
In FIG. 5 the spectra of the three solutions are presented for the aromatic region (5.5-9.8 ppm). The differences are quite small but obvious in the expansion shown of FIG. 6 and FIG. 7, respectively.

[3] = in vivo; cited from earlier work
Aβ(1-40) [4] = molecular target: T1, Aβ(1-40) (Homo sapiens, UniProt P05067); test: Thioflavin T fluorometric assay of Zn2+-induced Aβ(1-40) aggregation; type: biochemical; settings: test compound 10 μg/ml; Aβ(1-40) 100 μM; 24 hours, room temperature
T1 construct: A 5 mg/ml stock solution of Aβ(1-40) (delivered from Bachem (CH)) was freshly prepared; purchased Bachem (CH)
T1 sequence (P05067 672-711): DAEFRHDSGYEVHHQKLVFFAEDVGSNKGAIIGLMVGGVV
Description: (§1) A 5 mg/ml stock solution of Aβ(1-40) (delivered from Bachem (CH)) was freshly prepared before each experiment by dissolving the lyophilised peptide in 0.01 M HCl, followed by subsequent dilution 1:1 with 0.01 M NaOH to yield a neutral pH. Aliquot of Aβ(1-40) were diluted in PBS (pH 7.4) to 100 μM and incubated at a total volume of 30 μl for 24 hours at room temperature. For co-incubation experiments, the indicated concentrations of metal ions and/or aliquot of test compounds were added. The test compounds were added to a final […] concentration of 10 μg/ml.
(§2) The amyloid formation was quantified by a thioflavin T fluorometric assay. Thioflavin binds specifically to amyloid and this introduces a shift in its emission spectrum and a fluorescent signal proportional to the amount of amyloid is formed. After incubation, Aβ(1-40) peptides were added to PBS (pH 6.0) and 3 μM thioflavin T in a final volume of 1 ml. Fluorescence was monitored at excitation 454 nm and emission 482 nm using a Fluoroscan II fluorometer (Molecular devices, UK). A time scan of fluorescence was performed and three values after the decay reached a plateau (around 5 minutes) were averaged after subtracting the background fluorescence of 3 μM thioflavin T. For co-incubation experiments, fluorescence of test compound alone was determined. Samples were run in triplicate. […]

Aβ(1-40) [5] = molecular target: T1, Aβ(1-40); test: Thioflavin T fluorometric assay of Cu2+-induced Aβ(1-40) aggregation; type: biochemical; settings: test compound 10 μg/ml; Aβ(1-40) 100 μM; 24 hours, room temperature
Description: as §1, §2

PC12 cells = test: MTT reduction (cell redox activity) in PC12 cells exposed to Aβ(25-35); type: cell-based, Rat
Description: Aβ(25-35) was delivered by Bachem (CH) or Sigma (USA) and dissolved in phosphate buffered saline (PBS) at pH 7.4, 2 hours prior to application.
Rat PC12 pheochromocytoma cells were grown in Dulbecco's modified Eagle's medium (DMEM) containing 1% penicillin-streptomycin, 5% fetal calf serum and 10% horse serum in humidified incubator with 5% CO2.
PC12 cells were plated on 96-wells microtiter plates in 100 μl of the appropriate medium. After 24 hours the indicated concentrations of Aβ(25-35) peptide was added alone or together with phanquinone in the designated concentrations. Incubation continued for 24 hours. Following incubation, MTT reduction was measured using a commercially available assay according to the manufacturer's (Boehringer Mannheim) instructions. Assay values obtained by vehicle alone were defined as 100%.
MTT is a substrate for intracellular and plasma membrane oxidoreductases and has been widely used to measure reductions of cell redox activity.
To test the effect of phanquinone on Aβ(25-35) induced toxicity in PC12 cells, PC12 cells were exposed to Aβ(25-35) peptide concentrations ranging from 0 to 10 μM. In the absence of phanquinone (i.e. only vehicle added) Aβ(25-35) produced a dose-dependent inhibition of MTT reduction (FIG. 1, filled-in circles).
In this study the same materials and methods as in example 1 were used, except that the PC12 cells were exposed to a fixed Aβ concentration of 1 μM, whereas the concentration of phanquinone was varied between 0 and 10 μg/ml. […] This inhibition was maintained in the presence of up to 0.1 μg phanquinone per ml.

solubility in water [1]: soluble in water
Compound: COC(=O)C1OC(Oc2c(I)cc(Cl)c3cccnc23)C(OC(C)=O)C(OC(C)=O)C1OC(C)=O (centres unmarked) [clioquinol glucuronide, methyl(5-chloro-7-iodo-quinolyl-2′,3′,4′-tri-O-acetyl-glucopyranosid)uronate]
interaction with vitamin B12 (shift of 1H NMR resonances) [2]: interaction between clioquinol glucuronide and vitamin B12, possibly of a hydrophobic nature

Compound: CCN(CC)C(=S)SSC(=S)N(CC)CC [Disulfiram]
adverse side effects [3]: severe adverse reactions

solubility in water [1]: cannot be dissolved in aqueous solutions | reduction of Zn2+-induced aggregation of Aβ(1-40) (Aβ(1-40) [4]): more than 60% | reduction of Cu2+-induced aggregation of Aβ(1-40) (Aβ(1-40) [5]): approximately 30%
Compound: Oc1c(I)cc(Cl)c2cccnc12 [clioquinol, 5-chloro-7-iodo-8-hydroxyquinoline]
adverse side effects [3]: causes subacute myelo-optico-neuropathy (SMON)

Compound: O=C1C(=O)c2ncccc2-c2cccnc21 [phanquinone, 4,7-phenanthroline-5,6-dione]
redox activity of Aβ(25-35)-treated cells (PC12 cells; 1 μM Aβ(25-35), 1 μg/ml phanquinone or more): normal redox activity is restored | toxic effect of Aβ (PC12 cells; 10 μg phanquinone per ml, Aβ as high as 1 μM): completely counteracted | toxic effect of Aβ(25-35) (PC12 cells; 10 μg phanquinone per ml, Aβ(25-35) 0 to 10 μM): virtually abolished | toxic effect of Aβ(25-35) (PC12 cells; Aβ 1 μM, phanquinone 1 μg/ml and above): completely abolished | toxic effect of Aβ(25-35) (PC12 cells; Aβ 1 μM, phanquinone above 0.1 μg/ml): drastic reduced toxic effect | inhibition of MTT reduction by Aβ(25-35) (PC12 cells; Aβ 1 μM, up to 0.1 μg phanquinone per ml): maintained | adverse side effects [3]: no adverse side effects have been detected | reduction of Cu2+-induced aggregation of Aβ(1-40) (Aβ(1-40) [5]): 50-60%

Compound: Aβ(25-35): peptide sequence between amino acid residues 25 and 35 of Aβ, delivered by Bachem or Sigma (GSNKGAIIGLM; Amyloid-beta protein 42; UniProt P05067 696-706, looked up, fragment)
redox activity of cells, of the normal level (PC12 cells; 1 μM Aβ(25-35)): 60% | inhibition of MTT reduction (PC12 cells; Aβ(25-35) 1 μM, absence of phanquinone): approximately 40% | inhibition of MTT reduction (PC12 cells; Aβ(25-35) 10 μM, absence of phanquinone): approximately 50% | inhibition of MTT reduction (PC12 cells; Aβ(25-35) as low as 0.01 μM): significant reduction | MTT reduction reduced to a maximum level (PC12 cells; Aβ(25-35) on or above 0.1 μM, absence of phanquinone): about 50%
